# Data published in patent US11051515B2, “3-acyl-benzamides and their use as herbicides” (Bayer Aktiengesellschaft, priority 2017, dated 2021).
# How the values were obtained:
# STEME [1] = assay: Pre-emergence action against STEME; type: in vivo, Stellaria media; details: Dosage 320 g/ha, pre-emergence
# How it was run: (§1)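 Seeds sown in sandy loam in wood-fiber pots and covered with soil. Greenhouse growth; visual damage scored after 3 weeks versus untreated controls (100% = dead, 0% = like control).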
# VERPE [2] = assay: Pre-emergence action against VERPE; type: in vivo, Veronica persica; details: Dosage 320 g/ha, pre-emergence
# How it was run: as §1
# VERPE [3] = assay: Post-emergence action against VERPE; type: in vivo, Veronica persica; details: dosage 80 g/ha
# How it was run: (§2)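 Weeds grown in sandy loam in greenhouse, treated at one-leaf stage (2–3 weeks after sowing) with WP or EC formulations sprayed as aqueous suspension/emulsion at 600 to […] water with 0.2% wetting agent. Visual rating after about 3 weeks versus untreated controls, as % herbicidal action (100% = plants dead, 0% = like control).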
# VIOTR [4] = assay: Pre-emergence action against VIOTR; type: in vivo, Viola tricolor; details: Dosage 320 g/ha, pre-emergence
# How it was run: as §1
# ALOMY [5] = assay: Pre-emergence action against ALOMY; type: in vivo, Alopecurus myosuroides; details: dosage 320 g/ha, pre-emergence, scored visually after 3 weeks vs untreated controls, 100% = plants have died, 0% = like control plants
# How it was run: as §1
# SETVI [6] = assay: Post-emergence action against SETVI; type: in vivo, Setaria viridis; details: post-emergence, dosage 80 g/ha, visual assessment about 3 weeks after treatment vs untreated controls
# How it was run: as §2
# MATIN [7] = assay: Post-emergence action against MATIN; type: in vivo, Matricaria inodora; details: post-emergence, dosage 80 g/ha, visual assessment about 3 weeks after treatment vs untreated controls
# How it was run: as §2
# MATIN [8] = assay: Pre-emergence action against MATIN; type: in vivo, Matricaria inodora; details: Dosage 320 g/ha, pre-emergence
# How it was run: as §1
# ABUTH [9] = assay: Pre-emergence action against ABUTH; type: in vivo, Abutilon theophrasti; details: pre-emergence, dosage 320 g/ha, scored visually after 3 weeks vs untreated controls
# How it was run: as §1
# LOLRI [10] = assay: Post-emergence action against LOLRI; type: in vivo, Lolium rigidum; details: dosage 80 g/ha, visual assessment about 3 weeks after treatment vs untreated controls
# Experimental: Seeds of monocotyledonous and dicotyledonous weed and crop plants are laid out in sandy loam soil in wood-fiber pots, covered with soil and cultivated in a greenhouse under good growth conditions. 2 to 3 weeks after sowing, the test plants are treated at the one-leaf stage. The compounds of the invention, formulated in the form of wettable powders (WP) or as emulsion concentrates (EC), are then sprayed onto the green parts of the plants in the form of an aqueous suspension or emulsion at a water application rate equating to […], with addition of 0.2% wetting agent. After the test plants have been left to stand in the greenhouse under optimal growth conditions for about 3 weeks, the action of the preparations is assessed visually in comparison to untreated controls (herbicidal action in percent (%): 100% activity=the plants have died, 0% activity=like control plants). […] At the same time, inventive compounds leave Gramineae crops such as barley, wheat, rye, millet/Sorghum, corn or rice virtually undamaged when applied post-emergence, even at high active ingredient dosages. In addition, some substances are also harmless to dicotyledonous crops such as soya, cotton, oilseed rape, sugar beet or potatoes. Some of the compounds according to the invention have high selectivity and are therefore suitable for controlling unwanted vegetation in agricultural crops by the post-emergence method. The data of Tables B18 to B34 below illustrate, in an exemplary manner, the […] herbicidal action of the compounds according to the invention, the herbicidal activity being stated in percent.
# ABUTH [11] = assay: Post-emergence action against ABUTH; type: in vivo, Abutilon theophrasti; details: post-emergence, dosage 80 g/ha, visual assessment about 3 weeks after treatment vs untreated controls
# How it was run: as §2
# ECHCG [12] = assay: Post-emergence action against ECHCG; type: in vivo, Echinochloa crus-galli; details: post-emergence, dosage 80 g/ha, visual assessment about 3 weeks after treatment vs untreated controls
# How it was run: as §2
# VIOTR [13] = assay: Post-emergence action against VIOTR; type: in vivo, Viola tricolor; details: post-emergence, dosage 80 g/ha
# How it was run: as §2
# CYPES [14] = assay: Post-emergence action against CYPES; type: in vivo, Cyperus esculentus; details: Cyperus esculentus, 504 h; post-emergence, dosage 80 g/ha, visual assessment about 3 weeks after treatment vs untreated controls; read-out: Post-emergence action against CYPES (herbicidal action in percent)
# How it was run: as §2
# LOLRI [15] = assay: Pre-emergence action against LOLRI; type: in vivo, Lolium rigidum; details: dosage 320 g/ha, scored visually after 3 weeks vs untreated controls
# How it was run: as §1
# CYPES [16] = assay: Pre-emergence action against CYPES; type: in vivo, Cyperus esculentus; details: pre-emergence, dosage 320 g/ha, scored visually after 3 weeks vs untreated controls
# How it was run: as §1
# AMARE [17] = assay: Pre-emergence action against AMARE; type: in vivo, Amaranthus retroflexus; details: pre-emergence, dosage 320 g/ha, scored visually after 3 weeks vs untreated controls
# How it was run: as §1
# SETVI [18] = assay: Pre-emergence action against SETVI; type: in vivo, Setaria viridis; details: pre-emergence, dosage 320 g/ha, scored visually after 3 weeks vs untreated controls
# How it was run: as §1
# POLCO = assay: Pre-emergence action against POLCO; type: in vivo, Polygonum convolvulus; details: Dosage 320 g/ha, pre-emergence
# How it was run: as §1
# AVEFA [19] = assay: Pre-emergence action against AVEFA; type: in vivo, Avena fatua; details: dosage 320 g/ha, scored visually after 3 weeks vs untreated controls
# How it was run: as §1
# ECHCG [20] = assay: Pre-emergence action against ECHCG; type: in vivo, Echinochloa crus-galli; details: pre-emergence, dosage 320 g/ha, scored visually after 3 weeks vs untreated controls
# How it was run: as §1
# STEME [21] = assay: Post-emergence action against STEME; type: in vivo, Stellaria media; details: post-emergence, dosage 80 g/ha
# How it was run: as §2
# AMARE [22] = assay: Post-emergence action against AMARE; type: in vivo, Amaranthus retroflexus; details: post-emergence, dosage 80 g/ha, visual assessment about 3 weeks after treatment vs untreated controls
# How it was run: as §2
# PHBPU [23] = assay: Post-emergence action against PHBPU; type: in vivo, Pharbitis purpurea; details: post-emergence, dosage 80 g/ha
# How it was run: as §2
# PHBPU [24] = assay: Pre-emergence action against PHBPU; type: in vivo, Pharbitis purpurea; details: Dosage 320 g/ha, pre-emergence
# How it was run: as §1
# ALOMY [25] = assay: Post-emergence action against ALOMY; type: in vivo, Alopecurus myosuroides; details: Dosage 80 g/ha, post-emergence
# How it was run: as §2
# AVEFA [26] = assay: Post-emergence action against AVEFA; type: in vivo, Avena fatua; details: post-emergence, dosage 80 g/ha, visual assessment about 3 weeks after treatment vs untreated controls
# How it was run: as §2
smiles,measurement,setting,value
CC(C)C(=O)c1c(C(F)(F)F)ccc(C(=O)Nc2nnnn2C)c1Cl [1-140],pest or weed control at 320 g/ha,"STEME [1]; Stellaria media, 504 h",100%
same,pest or weed control at 320 g/ha,"VERPE [2]; Veronica persica, 504 h",100%
same,pest or weed control at 80 g/ha,"VERPE [3]; Veronica persica, 504 h",80%
same,pest or weed control at 320 g/ha,"VIOTR [4]; Viola tricolor, 504 h",100%
same,pest or weed control at 320 g/ha,"ALOMY [5]; Alopecurus myosuroides, 504 h, read-out: Pre-emergence action against ALOMY (herbicidal activity in percent)",100%
same,pest or weed control at 80 g/ha,"SETVI [6]; Setaria viridis, 504 h, read-out: Post-emergence action against SETVI (herbicidal action in percent)",100%
same,pest or weed control at 80 g/ha,"MATIN [7]; Tripleurospermum inodorum, 504 h, read-out: Post-emergence action against MATIN (herbicidal action in percent)",100%
same,pest or weed control at 320 g/ha,"MATIN [8]; Tripleurospermum inodorum, 504 h",100%
same,pest or weed control at 320 g/ha,"ABUTH [9]; Abutilon theophrasti, 504 h, read-out: Pre-emergence action against ABUTH (herbicidal activity)",100%
same,pest or weed control at 80 g/ha,"LOLRI [10]; Lolium rigidum, 504 h, read-out: Post-emergence action against LOLRI (herbicidal action in percent)",80%
same,pest or weed control at 80 g/ha,"ABUTH [11]; Abutilon theophrasti, 504 h, read-out: Post-emergence action against ABUTH (herbicidal action in percent)",100%
same,pest or weed control at 80 g/ha,"ECHCG [12]; Echinochloa crus-galli, 504 h, read-out: Post-emergence action against ECHCG (herbicidal action in percent)",100%
same,pest or weed control at 80 g/ha,"VIOTR [13]; Viola tricolor, 504 h",100%
same,pest or weed control at 80 g/ha,CYPES [14],90%
same,pest or weed control at 320 g/ha,"LOLRI [15]; Lolium rigidum, 504 h, read-out: Pre-emergence action against LOLRI (herbicidal activity)",100%
same,pest or weed control at 320 g/ha,"CYPES [16]; Cyperus esculentus, 504 h, read-out: Pre-emergence action against CYPES (herbicidal activity)",90%
same,pest or weed control at 320 g/ha,"AMARE [17]; Amaranthus retroflexus, 504 h, read-out: Pre-emergence action against AMARE (herbicidal activity)",100%
same,pest or weed control at 320 g/ha,"SETVI [18]; Setaria viridis, 504 h, read-out: SETVI (Table B8, pre-emergence herbicidal activity)",100%
same,pest or weed control at 320 g/ha,"POLCO; Fallopia convolvulus, 504 h",80%
same,pest or weed control at 320 g/ha,"AVEFA [19]; Avena fatua, 504 h, read-out: Pre-emergence action against AVEFA (herbicidal activity)",80%
same,pest or weed control at 320 g/ha,"ECHCG [20]; Echinochloa crus-galli, 504 h, read-out: Pre-emergence action against ECHCG (herbicidal activity)",100%
same,pest or weed control at 80 g/ha,"STEME [21]; Stellaria media, 504 h",100%
same,pest or weed control at 80 g/ha,"AMARE [22]; Amaranthus retroflexus, 504 h, read-out: Post-emergence action against AMARE (herbicidal action in percent)",90%
same,pest or weed control at 80 g/ha,"PHBPU [23]; Ipomoea purpurea, 504 h",90%
COCC(=O)c1c(C(F)(F)F)ccc(C(=O)Nc2nnnn2C)c1Cl [1-144],Pre-emergence action against STEME,STEME [1],100%
same,Pre-emergence action against VERPE,VERPE [2],100%
same,Post-emergence action against VERPE,VERPE [3],90
same,Pre-emergence action against VIOTR,VIOTR [4],100%
same,Pre-emergence action against ALOMY (herbicidal activity in percent),ALOMY [5],100%
same,Post-emergence action against SETVI (herbicidal action in percent),SETVI [6],100%
same,Pre-emergence action against PHBPU,PHBPU [24],100%
same,Post-emergence action against MATIN (herbicidal action in percent),MATIN [7],90%
same,Pre-emergence action against MATIN,MATIN [8],100%
same,Pre-emergence action against ABUTH (herbicidal activity),ABUTH [9],100%
same,Post-emergence action against LOLRI (herbicidal action in percent),LOLRI [10],80%
same,Post-emergence action against ABUTH (herbicidal action in percent),ABUTH [11],100%
same,Post-emergence action against ECHCG (herbicidal action in percent),ECHCG [12],90%
same,Post-emergence action against VIOTR,VIOTR [13],100
same,Post-emergence action against ALOMY,ALOMY [25],90%
same,Pre-emergence action against LOLRI (herbicidal activity),LOLRI [15],100%
same,Pre-emergence action against CYPES (herbicidal activity),CYPES [16],100%
same,Pre-emergence action against AMARE (herbicidal activity),AMARE [17],100%
same,"SETVI (Table B8, pre-emergence herbicidal activity)",SETVI [18],100%
same,Pre-emergence action against POLCO,POLCO,80%
same,Pre-emergence action against AVEFA (herbicidal activity),AVEFA [19],100%
same,Pre-emergence action against ECHCG (herbicidal activity),ECHCG [20],100%
same,Post-emergence action against STEME,STEME [21],100
same,Post-emergence action against AMARE (herbicidal action in percent),AMARE [22],100%
same,Post-emergence action against PHBPU,PHBPU [23],100
CCn1nnnc1NC(=O)c1ccc(C(F)(F)F)c(C(=O)C2(C)CC2)c1Cl [2-147],Pre-emergence action against STEME,STEME [1],100%
same,Pre-emergence action against VERPE,VERPE [2],80%
same,Post-emergence action against AVEFA (herbicidal action in percent),AVEFA [26],80%
same,Pre-emergence action against VIOTR,VIOTR [4],100%
same,Pre-emergence action against ALOMY (herbicidal activity in percent),ALOMY [5],90%
same,Post-emergence action against SETVI (herbicidal action in percent),SETVI [6],80%
same,Post-emergence action against MATIN (herbicidal action in percent),MATIN [7],100%
same,Pre-emergence action against MATIN,MATIN [8],100%
same,Pre-emergence action against ABUTH (herbicidal activity),ABUTH [9],100%
same,Post-emergence action against LOLRI (herbicidal action in percent),LOLRI [10],80%
same,Post-emergence action against ABUTH (herbicidal action in percent),ABUTH [11],90%
same,Post-emergence action against ECHCG (herbicidal action in percent),ECHCG [12],80%
same,Pre-emergence action against LOLRI (herbicidal activity),LOLRI [15],90%
same,Pre-emergence action against CYPES (herbicidal activity),CYPES [16],80%
same,Pre-emergence action against AMARE (herbicidal activity),AMARE [17],100%
same,"SETVI (Table B8, pre-emergence herbicidal activity)",SETVI [18],100%
same,Pre-emergence action against AVEFA (herbicidal activity),AVEFA [19],90%
same,Pre-emergence action against ECHCG (herbicidal activity),ECHCG [20],100%
same,Post-emergence action against AMARE (herbicidal action in percent),AMARE [22],80%
same,Post-emergence action against PHBPU,PHBPU [23],90
